Test results published in article PMC9292215 (Clinical Pharmacology and Therapeutics, 2021).
Marks after values point to notes of the source that are not given here.

Legend:
[1] = Plasma pharmacokinetics of BIA 10-2474 and metabolites; type: in vivo, human; conditions: for Cmax / half-life / Tmax / AUC(0-inf) / concentration at 10 day / AUC(0-t) / AUC / clearance: human, plasma, oral; for AUC(0-t): AUC0–t; for AUC: AUC0–τ; for clearance: CL
[2] = Phase I SAD/FI/MAD study: adverse events; type: in vivo, human
[3] = 10 mg, 10 mg once daily, Day 10
[4] = 20 mg, 20 mg once daily, Day 10
[5] = MAD 50 mg, moderate, serious, participant with fatal outcome

SMILES: CN(C(=O)n1cnc(-c2ccc[n+]([O-])c2)c1)C1CCCCC1 [BIA 10-2474, 3-(1-(cyclohexyl(methyl)carbamoyl)-1H-imidazol-4-yl)pyridine 1-oxide]
- Cmax ([1]; 5 mg, 5 mg once daily, Day 1): 76.2 ng/mL
- Cmax ([1]; 5 mg, 5 mg once daily, Day 10): 85.7 ng/mL
- half-life ([1]; 5 mg, t1/2, 5 mg once daily, Day 1): 6.4 h
- half-life ([1]; 5 mg, t1/2, 5 mg once daily, Day 10): 7.87 h
- half-life ([1]; 5 mg, t1/2, single dose 5 mg): 6.57 h
- Tmax ([1]; 5 mg, 5 mg once daily, Day 1): 2 h
- Tmax ([1]; 5 mg, 5 mg once daily, Day 10): 2 h
- AUC(0-inf) ([1]; 10 mg): 1610 ng·h/mL
- concentration at 10 day ([1]; 10 mg): 31.9 ng/mL
- AUC(0-t) ([1]; 10 mg, 10 mg once daily, Day 1): 1390 ng·h/mL
- AUC(0-t) ([1]; 10 mg, single dose 10 mg): 1440 ng·h/mL
- AUC ([1]; 10 mg, 10 mg once daily, Day 1): 1390 ng·h/mL
- AUC [1, 3]: 2200 ng·h/mL
- clearance ([1]; 10 mg, 10 mg once daily, Day 1): 116 mL/min
- clearance [1, 3]: 80.3 mL/min
- clearance ([1]; 10 mg, single dose 10 mg): 112 mL/min
- Cmax ([1]; 10 mg, 10 mg once daily, Day 1): 143 ng/mL
- Cmax [1, 3]: 190 ng/mL
- Cmax ([1]; 10 mg, single dose 10 mg): 146 ng/mL
- half-life ([1]; 10 mg, t1/2, 10 mg once daily, Day 1): 7.12 h
- half-life ([1]; 10 mg, t1/2, 10 mg once daily, Day 10): 9.09 h
- half-life ([1]; 10 mg, t1/2, single dose 10 mg): 7.01 h
- Tmax ([1]; 10 mg, 10 mg once daily, Day 1): 2 h
- Tmax [1, 3]: 2 h
- Tmax ([1]; 10 mg, single dose 10 mg): 3 h
- AUC(0-inf) ([1]; 20 mg): 4170 ng·h/mL
- concentration at 10 day ([1]; 20 mg): 69.2 ng/mL
- AUC(0-t) ([1]; 20 mg, 20 mg once daily, Day 1): 2980 ng·h/mL
- AUC(0-t) ([1]; 20 mg, single dose 20 mg): 4070 ng·h/mL
- AUC ([1]; 20 mg, 20 mg once daily, Day 1): 2980 ng·h/mL
- AUC [1, 4]: 4650 ng·h/mL
- clearance ([1]; 20 mg, 20 mg once daily, Day 1): 100 mL/min
- clearance [1, 4]: 72.2 mL/min
- clearance ([1]; 20 mg, single dose 20 mg): 81.2 mL/min
- Cmax ([1]; 20 mg, 20 mg once daily, Day 1): 290 ng/mL
- Cmax [1, 4]: 396 ng/mL
- Cmax ([1]; 20 mg, single dose 20 mg): 308 ng/mL
- half-life ([1]; 20 mg, t1/2, 20 mg once daily, Day 1): 7.74 h
- half-life ([1]; 20 mg, t1/2, 20 mg once daily, Day 10): 10.2 h
- half-life ([1]; 20 mg, t1/2, single dose 20 mg): 8.7 h
- Tmax ([1]; 20 mg, 20 mg once daily, Day 1): 1.5 h
- Tmax [1, 4]: 2 h
- Tmax ([1]; 20 mg, single dose 20 mg): 2 h
- AUC(0-t) ([1]; 50 mg, 50 mg once daily, Day 1): 7770 ng·h/mL
- AUC ([1]; 50 mg, 50 mg once daily, Day 1): 7770 ng·h/mL
- clearance ([1]; 50 mg, 50 mg once daily, Day 1): 94.7 mL/min
- Cmax ([1]; 50 mg, 50 mg once daily, Day 1): 667 ng/mL
- half-life ([1]; 50 mg, t1/2, 50 mg once daily, Day 1): 8.67 h
- Tmax ([1]; 50 mg, 50 mg once daily, Day 1): 2 h
- time to steady state ([1]; once-daily administration, visual inspection of Ctrough): 5 to 6 days
- V/F ([1]; single dose 1.25 mg): 87.8 (30.4) L
- V/F ([1]; single dose 2.5 mg): 79.0 (29.0) L
- V/F ([1]; single dose 5 mg): 64.6 (23.0) L
- V/F ([1]; single dose 10 mg): 66.9 (29.8) L
- V/F ([1]; single dose 20 mg): 61.3 (19.0) L
- V/F ([1]; single dose 40 mg): 73.2 (28.3) L
- V/F ([1]; single dose 100 mg): 57.0 (16.3) L
- decrease of exposure in the presence of food ([1]; single oral 40 mg): ~ 15%
- Any AE, n (%) ([2]; 2.5 mg once daily 10 days, N = 6): 1 (16.7%)
- Any AE, n (%) ([2]; 5 mg once daily 10 days, N = 6): 1 (16.7%)
- Any AE, n (%) ([2]; 10 mg once daily 10 days, N = 6): 3 (50%)
- duration of blurred vision ([2]; 10 mg/day, mild): < 2.5 h
- participants with blurred vision ([2]; 10 mg/day, two participants): 2.3%
- Any AE, n (%) ([2]; 20 mg once daily 10 days, N = 6): 4 (66.7%)
- Abdominal pain, No. events ([2]; MAD 50 mg): 1
- Asthenia, No. events ([2]; MAD 50 mg): 1
- Blurred vision, No. events ([2]; MAD 50 mg): 1
- Diarrhea, No. events ([2]; MAD 50 mg): 2
- Dizziness, No. events ([2]; MAD 50 mg): 2
- Nausea, No. events ([2]; MAD 50 mg): 1
- Headache, No. events ([2]; MAD 50 mg, 3 moderate): 2 + 3^#
- Hot Flush, No. events ([2]; MAD 50 mg, moderate): 1^#
- Soft feces, No. events ([2]; MAD 50 mg, moderate): 1^#
- Diplopia, No. events ([2]; MAD 50 mg, moderate, serious): 1^#§
- Transient global amnesia, No. events ([2]; MAD 50 mg, moderate, serious): 1^#§
- Dysarthria, No. events [2, 5]: 1^#§&
- Feeling drunk, No. events [2, 5]: 1^#§&
- Vitreous floaters, No. events ([2]; MAD 50 mg, serious): 1^§*
- Hemiparesis, No. events ([2]; MAD 50 mg, severe, serious): 1^£§
- Nervous system disorder, No. events ([2]; MAD 50 mg, severe, serious, hospitalization): 1^£§H
- participants reporting treatment-emergent adverse effects ([2]; any dose of BIA 10-2474, 15 participants): 17.9%
- participants with CNS (serious) adverse events ([2]; repeated 50 mg (up to day 5), one with fatal outcome): five of six
- participants with headache ([2]; single 40 mg, 10 and 20 mg/day for 10 days, three participants): 3.6%
- Any AE, n (%) ([2]; single dose 0.25 mg, N = 6): 0
- Any AE, n (%) ([2]; single dose 1.25 mg, N = 6): 0
- Any AE, n (%) ([2]; single dose 2.5 mg, N = 6): 1 (16.7%)
- Any AE, n (%) ([2]; single dose 5 mg, N = 6): 0
- Any AE, n (%) ([2]; single dose 10 mg, N = 6): 1 (16.7%)
- Any AE, n (%) ([2]; single dose 20 mg, N = 6): 0
- Any AE, n (%) ([2]; single dose 40 mg (SAD and FI combined), N = 18): 5 (27.8%)
- Any AE, n (%) ([2]; single dose 100 mg, N = 6): 1 (16.7%)
- tolerability ([2]; up to 100 mg single dose and up to 20 mg once daily for 10 days): well tolerated
